The values that follow are results of earlier work, collected in patent US6486152B1, “Topical carbamazepine formulations and methods of use” (Taro Pharmaceutical Industries Ltd., priority 1997, dated 2002).

Each structure is given as a SMILES string.

The subject of one data set is psoriatic erythroderma. The settings on record: HIV positive patient.

As to `NC(=O)N1c2ccccc2C=Cc2ccccc21` [Carbamazepine, 5-carbamoyl-5H-dibenz[b,f]azepine], in the data set on psoriatic erythroderma (accidentally ingested 200-400 mg/day for two weeks), the “psoriatic erythroderma condition during first intake” value was “exhibited improvement”. For the same molecule, in the data set on psoriatic erythroderma (after they stopped taking the medication), the “psoriatic erythroderma condition after stopping the medication” value was “flared up again”. The “psoriatic erythroderma condition on second intake” value with psoriatic erythroderma (intentionally took the medication a second time) is “improved once again”. In the data set with psoriatic erythroderma (systemic (ingested) carbamazepine), the mood entry is reported as “affected”. Further, for the setting “acetone”, the solubility in acetone result is “soluble”. Also, the solubility in alcohols entry (alcohols) was “soluble”. Besides, the “solubility in propylene glycol” value (propylene glycol) is on record as “soluble”. Moreover, the solubility in water result (water) is listed as “practically insoluble”.
